Series [1] deals with T1, NLRP3 (Homo sapiens, UniProt Q96P20). Description: Human whole blood IL1β release assay. Type of series: cell-based. The following applies: LPS 1 μg/ml, nigericin 10 μM, IL-1β AlphaLisa, 10 μM top dose (Example 2: top dose of 30 μM), read-out: HWB IC50. Summed up:
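Healthy-donor heparinised human whole blood with 1 μg/ml LPS, compound (8-point half-log dilution, 10 μM top dose unless stated; 0.1% DMSO vehicle) for 3 h at 37 °C, then nigericin 10 μM final for 1 h. Supernatant IL-1β by AlphaLISA; IC50 from 4-parameter variable-slope fit.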
Background: Alpha assays give light when donor and acceptor beads are brought close together.

A short description of series [2]: PK, intravenous administration. Type of series: in vivo. The following applies: rat, plasma, male Sprague Dawley rats, dose about 1 mg/kg; for Vd: read-out: Vdss. The protocol:
Pharmacokinetic parameters were determined in male Sprague Dawley rats (Vital River Laboratory Animal Technology Co Ltd, Beijing, China, 6-9 weeks old). Animals were maintained under a 12 h light/dark cycle. Animals had free access to food and water, except that orally dosed animals were food deprived overnight prior to the study.
For intravenous administration, compounds were formulated as a solution (in DMSO:water [10:90] or in DMSO:PBS [10:90]) in 2 mL/kg dosing volume and administered via tail vein. For oral administration, compounds were formulated as a solution (in 0.5% methylcellulose in water) in […] dosing volume and administered orally.
Serial blood samples (about 200 μL) were taken from each animal at each of 8 time-points post dose ([…], 0.25, 0.5, 1, 2, 4, 8 and 24 h). Samples were held on ice for no longer than 30 minutes before centrifugation (5,696 rpm (3,000 g) for 15 minutes) for plasma generation. Plasma was frozen on dry ice prior to bioanalysis. PK parameters were generated from LC-MS/MS data using Phoenix WinNonlin 6.3 software.

Series [3] deals with T1, NLRP3. Description: THP-1 cells pyroptosis assay. The series is classed as cell-based. Set-up: Seed THP-1 cells (25,000 cells/well) containing 1.0 μg/ml LPS; host or cells: THP-1. The following applies: LPS 1.0 μg/ml, nigericin 5 μM, resazurin readout, 10 μM top dose (Example 2: top dose of 30 μM). Summed up: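 THP-1 cells (25,000/well) primed with 1 μg/ml LPS in serum-free RPMI, treated with compound (8-point dilution, 10 μM top unless stated; 0.1% DMSO) 3 h at 37°C, then nigericin 5 μM 1 h. Viability read by resazurin (100 μM, 1-2 h) fluorescence; IC50 from 4-parameter fit.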
A general note: Alamar Blue is a resazurin reagent that responds to reducing activity.

Some results are limits rather than exact numbers.

T1 sequence (Q96P20 whole entry): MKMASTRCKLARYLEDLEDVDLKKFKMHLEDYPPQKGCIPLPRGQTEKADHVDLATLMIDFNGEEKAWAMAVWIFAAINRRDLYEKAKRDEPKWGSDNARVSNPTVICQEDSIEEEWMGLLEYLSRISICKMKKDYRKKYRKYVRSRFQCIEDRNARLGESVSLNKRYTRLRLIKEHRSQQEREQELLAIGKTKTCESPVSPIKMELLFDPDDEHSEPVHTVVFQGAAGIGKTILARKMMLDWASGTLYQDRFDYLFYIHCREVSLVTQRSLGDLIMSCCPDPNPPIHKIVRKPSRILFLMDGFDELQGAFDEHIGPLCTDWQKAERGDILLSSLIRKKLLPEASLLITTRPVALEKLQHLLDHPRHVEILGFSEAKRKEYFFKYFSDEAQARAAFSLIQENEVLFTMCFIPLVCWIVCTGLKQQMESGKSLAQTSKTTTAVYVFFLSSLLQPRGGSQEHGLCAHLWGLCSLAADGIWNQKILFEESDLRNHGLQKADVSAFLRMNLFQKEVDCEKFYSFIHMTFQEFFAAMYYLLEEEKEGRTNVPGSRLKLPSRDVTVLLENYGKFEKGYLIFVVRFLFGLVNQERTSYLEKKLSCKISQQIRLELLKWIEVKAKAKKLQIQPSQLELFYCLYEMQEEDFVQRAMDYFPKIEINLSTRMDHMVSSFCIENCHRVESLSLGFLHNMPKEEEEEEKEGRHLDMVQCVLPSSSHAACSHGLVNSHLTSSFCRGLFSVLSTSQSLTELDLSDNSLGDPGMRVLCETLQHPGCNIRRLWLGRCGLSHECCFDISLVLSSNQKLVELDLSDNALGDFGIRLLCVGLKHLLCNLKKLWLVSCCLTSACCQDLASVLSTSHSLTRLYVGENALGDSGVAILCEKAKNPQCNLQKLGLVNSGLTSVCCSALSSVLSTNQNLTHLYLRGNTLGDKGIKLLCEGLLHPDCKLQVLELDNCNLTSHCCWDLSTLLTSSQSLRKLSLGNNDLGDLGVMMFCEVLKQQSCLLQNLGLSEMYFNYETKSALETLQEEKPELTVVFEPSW

As to `Cn1ccc(S(=O)(=O)c2nnc(Nc3c4c(cc5c3CCC5)CCC4)[nH]2)n1` [Example 176, N-(1,2,3,5,6,7-hexahydro-s-indacen-4-yl)-5-((1-methyl-1H-pyrazol-3-yl)sulfonyl)-4H-1,2,4-triazol-3-amine], the IC50 (in general, the concentration that inhibits the measured activity by half) at NLRP3 [1] was at most 10000 nM. In series [2], the AUC (usually concentration integrated over time) amounted to 814 ng·h/mL; the clearance (in general, the rate of elimination divided by the concentration) was 19.1 mL/min/kg; the half-life (in general, the time needed for the level to fall by half in the phase considered) is 28.4 min; the Vd amounted to 0.41 L/kg. Further, at NLRP3 [3], the IC50 was at most 1000 nM.

As to `CC(C)(O)Cn1ccc(S(=O)(=O)c2nnc(Nc3c4c(cc5c3CCC5)CCC4)[nH]2)n1` [Example 328, 1-(3-((5-((1,2,3,5,6,7-hexahydro-s-indacen-4-yl)amino)-4H-1,2,4-triazol-3-yl)sulfonyl)-1H-pyrazol-1-yl)-2-methylpropan-2-ol], the half-inhibitory concentration (IC50) at NLRP3 [1] was at most 10000 nM. Also, in series [2], the AUC was 1240 ng·h/mL, the clearance was 13.5 mL/min/kg, the half-life was 39.2 min and the Vd was 0.518 L/kg. Moreover, at NLRP3 [3], the IC50 was at most 500 nM.

As to `CNCCCS(=O)(=O)c1nnc(Nc2c3c(cc4c2CCC4)CCC3)[nH]1` [Example 54, N-(1,2,3,5,6,7-hexahydro-s-indacen-4-yl)-5-((3-(methylamino)propyl)sulfonyl)-4H-1,2,4-triazol-3-amine], the half-maximal inhibitory concentration (IC50) at NLRP3 [1] is at most 10000 nM. In series [2], the AUC stood at 273 ng·h/mL, the clearance amounted to 61.1 mL/min/kg, the half-life was 78 min and the Vd is 2.7 L/kg. The same compound showed an IC50 at NLRP3 [3] of at most 1000 nM.

For `CS(=O)(=O)c1nnc(Nc2c3c(cc4c2CCC4)CCC3)[nH]1` [Example 75, N-(1,2,3,5,6,7-hexahydro-s-indacen-4-yl)-5-(methylsulfonyl)-4H-1,2,4-triazol-3-amine], the IC50 on NLRP3 [1] was at most 10000 nM. Moreover, in series [2], the AUC was determined as 1000 ng·h/mL, the clearance came to 16.7 mL/min/kg, the half-life was 30 min and the Vd is 0.56 L/kg. Moreover, the IC50 against NLRP3 [3] is at most 5000 nM.

Consider `COc1cc(-c2ccc3c(c2Nc2nnc(S(=O)(=O)N4CCC(N(C)C)CC4)[nH]2)CCO3)ccn1` [Example 226, 1-((5-((5-(2-methoxypyridin-4-yl)-2,3-dihydrobenzofuran-4-yl)amino)-4H-1,2,4-triazol-3-yl)sulfonyl)-N,N-dimethylpiperidin-4-amine], for which, at NLRP3 [1], the half-inhibitory concentration (IC50) was at most 1000 nM. In series [2], the area under the curve (AUC) worked out at 216 ng·h/mL, the clearance is 77.2 mL/min/kg, the half-life was 46.8 min and the Vd turned out to be 1.48 L/kg. On NLRP3 [3], the half-inhibitory concentration (IC50) is at most 500 nM.

As for `CN1CCC2(C1)CN(S(=O)(=O)c1nnc(Nc3c4c(cc5c3CCC5)CCC4)[nH]1)C2` [Example 274, N-(1,2,3,5,6,7-hexahydro-s-indacen-4-yl)-5-((6-methyl-2,6-diazaspiro[3.4]octan-2-yl)sulfonyl)-4H-1,2,4-triazol-3-amine], the IC50 at NLRP3 [1] is at most 500 nM. Also, in series [2], the AUC was determined as 271 ng·h/mL, the clearance came to 61.6 mL/min/kg, the half-life was 98.4 min and the Vd worked out at 6.2 L/kg. This compound also registered a 50% inhibitory concentration (IC50) against NLRP3 [3] of at most 500 nM.

On to `CN1CCC2(C1)CN(S(=O)(=O)c1nnc(Nc3c(-c4ccnc(OC(F)F)c4)ccc4c3CCO4)[nH]1)C2` [Example 212, N-(5-(2-(difluoromethoxy)pyridin-4-yl)-2,3-dihydrobenzofuran-4-yl)-5-((6-methyl-2,6-diazaspiro[3.4]octan-2-yl)sulfonyl)-4H-1,2,4-triazol-3-amine], for which, on NLRP3 [1], the IC50 is at most 500 nM. In addition, in series [2], the area under the curve (AUC) came out at 216 ng·h/mL, the clearance was found to be 76.1 mL/min/kg, the half-life was 11.4 min and the Vd was 0.88 L/kg. Moreover, the half-maximal inhibitory concentration (IC50) at NLRP3 [3] is at most 500 nM.

For the compound `CN1CCCC1CCS(=O)(=O)c1nnc(Nc2c3c(cc4c2CCC4)CCC3)[nH]1` (stereo not drawn) [Example 60, N-(1,2,3,5,6,7-hexahydro-s-indacen-4-yl)-3-((2-(1-methylpyrrolidin-2-yl)ethyl)sulfonyl)-1H-1,2,4-triazol-5-amine], the concentration for half-maximal inhibition (IC50) at NLRP3 [1] was at most 5000 nM. Further, in series [2], the AUC stood at 278 ng·h/mL, the clearance stood at 60 mL/min/kg, the half-life was 60 min and the Vd amounted to 3.24 L/kg. The compound further gave a 50% inhibitory concentration (IC50) against NLRP3 [3] of at most 1000 nM.

For the compound `O=S(=O)(c1nnc(Nc2c3c(cc4c2CCC4)CCC3)[nH]1)N1CC2(CCN(C3CC3)C2)C1` [Example 245, 5-((6-cyclopropyl-2,6-diazaspiro[3.4]octan-2-yl)sulfonyl)-N-(1,2,3,5,6,7-hexahydro-s-indacen-4-yl)-4H-1,2,4-triazol-3-amine], the IC50 on NLRP3 [1] was at most 5000 nM. Besides, in series [2], the area under the curve (AUC) is 393 ng·h/mL, the clearance is 49.6 mL/min/kg, the half-life is 44.4 min and the Vd is 1.63 L/kg. Further, the half-maximal inhibitory concentration (IC50) at NLRP3 [3] was at most 500 nM.

As for `COc1cc(-c2cc(F)cc(C(C)C)c2Nc2nnc(S(=O)(=O)c3ccccc3)[nH]2)ccn1` [Example 45, N-(4-fluoro-2-isopropyl-6-(2-methoxypyridin-4-yl)phenyl)-3-(phenylsulfonyl)-1H-1,2,4-triazol-5-amine], at NLRP3 [1], the IC50 was at most 5000 nM. In series [2], the AUC was 545 ng·h/mL, the clearance is 30.6 mL/min/kg, the half-life was 72 min and the Vd worked out at 1.59 L/kg. This compound yielded a half-inhibitory concentration (IC50) against NLRP3 [3] of at most 5000 nM.

Consider `COc1cc(-c2cc(F)cc(C(C)C)c2Oc2nnc(S(=O)(=O)N3CC4(CCN(C)C4)C3)[nH]2)ccn1` [Example 250, 2-((5-(4-fluoro-2-isopropyl-6-(2-methoxypyridin-4-yl)phenoxy)-4H-1,2,4-triazol-3-yl)sulfonyl)-6-methyl-2,6-diazaspiro[3.4]octane], for which the 50% inhibitory concentration (IC50) at NLRP3 [1] was at most 5000 nM. In series [2], the area under the curve (AUC) is 392 ng·h/mL, the clearance was 55.2 mL/min/kg, the half-life is 15.6 min and the Vd is 0.6 L/kg. In addition, at NLRP3 [3], the half-inhibitory concentration (IC50) was at most 500 nM.

On to `CC(C)c1cc(F)cc(C(C)C)c1Nc1nnc(S(=O)(=O)N2CCC3(CCCN3C)CC2)[nH]1` [Example 247, N-(4-fluoro-2,6-diisopropylphenyl)-5-((i-methyl-1,8-diazaspiro[4.5]decan-8-yl)sulfonyl)-4H-1,2,4-triazol-3-amine], for which the IC50 on NLRP3 [1] is at most 500 nM. Also, in series [2], the area under the curve (AUC) turned out to be 253 ng·h/mL, the clearance was found to be 72.5 mL/min/kg, the half-life was 163 min and the Vd worked out at 12.7 L/kg. On NLRP3 [3], this compound yielded an IC50 of at most 500 nM.

As for `COc1cc(-c2ccc3c(c2Nc2nnc(S(=O)(=O)N4CC[C@H](C(C)(C)O)C4)[nH]2)CCC3)ccn1` [Example 231, (S)-2-(1-((5-((5-(2-methoxypyridin-4-yl)-2,3-dihydro-1H-inden-4-yl)amino)-4H-1,2,4-triazol-3-yl)sulfonyl)pyrrolidin-3-yl)propan-2-ol], the concentration for half-maximal inhibition (IC50) on NLRP3 [1] was at most 1000 nM. Moreover, in series [2], the area under the curve (AUC) was determined as 459 ng·h/mL, the clearance was determined as 36.3 mL/min/kg, the half-life was 19.6 min and the Vd was found to be 0.494 L/kg. Further, the 50% inhibitory concentration (IC50) at NLRP3 [3] was at most 500 nM.

Take `CN1CCCC12CCN(S(=O)(=O)c1nnc(Nc3c4c(cc5c3CCC5)CCC4)[nH]1)CC2` [Example 278, N-(1,2,3,5,6,7-hexahydro-s-indacen-4-yl)-5-((1-methyl-1,8-diazaspiro[4.5]decan-8-yl)sulfonyl)-4H-1,2,4-triazol-3-amine]: the IC50 on NLRP3 [1] is at most 500 nM. Further, in series [2], the AUC turned out to be 278 ng·h/mL, the clearance is 60 mL/min/kg, the half-life is 108 min and the Vd came to 5.9 L/kg. In addition, the half-maximal inhibitory concentration (IC50) against NLRP3 [3] is at most 500 nM.

In the case of `CC(C)c1cc(F)cc(C(C)C)c1Nc1nnc(S(=O)(=O)N2CCC(N(C)C)CC2)[nH]1` [Example 303, 1-((5-((4-fluoro-2,6-diisopropylphenyl)amino)-1H-1,2,4-triazol-3-yl)sulfonyl)-N,N-dimethylpiperidin-4-amine], the IC50 on NLRP3 [1] is at most 5000 nM. Moreover, in series [2], the area under the curve (AUC) came to 200 ng·h/mL, the clearance worked out at 80.7 mL/min/kg, the half-life is 147 min and the Vd was determined as 11.5 L/kg. Besides, the concentration for half-maximal inhibition (IC50) at NLRP3 [3] is at most 1000 nM.

As to `CC(C)N1CCC2(C1)CN(S(=O)(=O)c1nnc(Nc3c4c(cc5c3CCC5)CCC4)[nH]1)C2` [Example 264, N-(1,2,3,5,6,7-hexahydro-s-indacen-4-yl)-5-((6-isopropyl-2,6-diazaspiro[3.4]octan-2-yl)sulfonyl)-4H-1,2,4-triazol-3-amine], on NLRP3 [1], the half-maximal inhibitory concentration (IC50) was at most 500 nM. In series [2], the AUC worked out at 280 ng·h/mL, the clearance is 59.6 mL/min/kg, the half-life was 113 min and the Vd was 5.78 L/kg. For the same compound, the half-inhibitory concentration (IC50) on NLRP3 [3] was at most 500 nM.

Values taken from patent US20210261512A1, “NOVEL COMPOUNDS” (INFLAZOME LIMITED, priority 2018, published 2021).
